Test results published in US20180214582A1, “METHOD FOR DIAGNOSING CARCINOMAS USING IRGD AND MAGENTIC RESONANCE TOMOGRAPHY (MRT)” (Albrecht Piiper, priority 2015, published 2018).

What was measured:
HCCs in TGFα/c-myc mice [1] = assay: Gd-DTPA-enhanced MRI with and without peptide in TGFα/c-myc mice with HCC; type: in vivo; settings: for contrast of HCC tumors in the liver in Gd-DTPA-enhanced MRI: T1-weighted 3T MRI
Excerpt: (§1) Male TGFα/c-myc bitransgenic mice were created by crossing homozygous metallothionein/TGFα and albumin/c-myc single-transgenic mice in a CD13B6CBA background as described (Murakami et al., 1993; Haupenthal et al., 2012). After weaning, the animals were given ZnCl2 by way of the drinking water to induce tumors via the expression of TGFα. Starting at an age of 20 weeks, the TGFα/c-myc animals underwent a Primovist-enhanced MRI scan in a 3T MRI Scanner (Siemens 113 Magnetom Trio, Siemens Medical Solutions) as described (Haupenthal et al., 2012; Watcharin et al., 2015; Korkusuz et al., 2013).
So as to determine the effect of iRGD on the Gd-DTPA-enhanced MRI in the HCC, TGFα/c mice with HCC according to a prior Gd-EOB-DTPA (Primovist)-enhanced MRI one week earlier, or nude mice with HepG2 or Huh7 tumors, were included in the experiments. The mice were anesthetized by way of intraperitoneal injection of ketamine (70 mg/kg body weight) and xylazine (10 mg/kg body weight), followed by a basal T1-weighted MRI. Directly thereafter, a Gd-DTPA-enhanced MRI was conducted (Haupenthal et al., 2012). Twelve to 24 hours later, either iRGD or the RGD control peptide was injected ([…] each via the tail vein), followed by a basal and a Gd-DTPA-enhanced MRI (Watcharin et al., 2015). For the quantitative analysis of the MRI data, the signal intensities in user defined “regions of interest” (ROI) were used (Korkusuz et al., 2013). ROIs were placed in the liver and in the tumor tissue. The changes in the signal intensities were ascertained by subtraction of the pre-contrast value from those after the administration of Gd-DTPA. The changes in the signal intensities of the tumors and the livers due to iRGD or the RGD control peptide were indicated as multiples of the values of the Gd-DTPA MRI with prior injection of PBS.
It was examined whether the tumor-permeabilizing effect of iRGD can already be detected by a Gd-DTPA-enhancing MRI, a widely used clinical procedure, in TGFα/c-myc mice with endogenous HCC. For this purpose, TGFα/c-myc mice with HCCs discovered one week prior according to Gd-EOB-DTPA-enhanced MRI were used. […] 12 to 24 hours later, the mice were administered iRGD or the RGD control peptide, followed by another Gd-DTPA-enhanced MRI.
TGFα/c-myc mice in which HCCs had been detected one week prior by way of Gd-EOB-DTPA-enhanced MRI were anesthetized, followed by a basal T1-weighted MRI, and a Gd-DTPA-enhanced MRI directly thereafter. 12 to 24 hours later, either iRGD or RGD control peptide (con. peptide) was injected (100 μL each via the tail vein, 4 mmol/kg) into the same animals, followed by a basal MRI and a Gd-DTPA-enhanced MRI. A. Gd-DTPA-enhanced MRI of TGFα/c-myc mice with HCC (left), followed by an injection of iRGD and another Gd-DTPA-enhanced MRI 12 hours thereafter. Arrows mark the tumor.
B. quantitative analysis of the MRI data. Values are mean values±SD; n=12.

HCCs in TGFα/c-myc mice [2] = assay: Evans blue accumulation after i.v. peptide in TGFα/c-myc mice with endogenous HCC; type: in vivo; settings: peptide 4 mmol/kg i.v., then Evans blue; for concentration of Evans blue in normal tissue (liver, kidney, spleen and lung): photometry; for Evans blue quantity in the tumors compared to HCCs of mice injected with PBS or control peptide: tissues 30 minutes later, photometric quantification
Excerpt: as §1
So as to examine whether intravenously applied iRGD increases the permeability of the HCC, the effect of intravenously applied iRGD on the levels of co-injected Evans blue, an albumin-binding dye, in TGFα/c-myc mice with endogeneous HCCs according to a Gd-EOB-DTPA-enhanced MRI were analyzed. For this purpose, the mice with HCC were intravenously injected with iRGD, an RGD control peptide without a CendR motif, or PBS, followed by the injection of Evans blue […]. Another 30 minutes later, the animals were terminally perfused.
(§2) TGFα/c-myc mice with MRI-verified HCCs (A) or mice with subcutaneous HepG2 (B) or Huh7 xenotransplants (C) were intravenously injected with 4 mmol/kg iRGD or control peptide (each in PBS), or PBS was injected alone, followed by an injection of EB 5 minutes later. The tissues were harvested after another 30 minutes. The EB accumulation in the tissues was determined by way of photometry. The data involves mean values±SD; n=4 to 5. Asterisks indicate a significant difference (* P<0.05; * P<0.01; *** P<0.001). n.s., not significant.

HepG2 xenotransplants [3] = assay: Doxorubicin tissue concentration after i.v. peptide in nude mice with HepG2 xenotransplants; type: in vivo; settings: nude mice with subcutaneous HepG2 xenotransplants; peptide 4 mmol/kg i.v., doxorubicin 20 mg/kg iv
Procedure: HepG2- and Huh7 cells (ATCC and RIKEN BioResource Center) were cultivated in DMEM with 10% FBS and penicillin/streptomycin (Life Technologies). 5 million cells in 100 μL PBS were injected into the sides of NMRI Foxn1 nude mice (Harlan Laboratories B.V.). Four weeks later the mice were assigned to the test groups. Furthermore, the effect of iRGD on the tissue concentrations of intravenously applied doxorubicin, a tumor therapeutic agent that can be detected due to the inherent fluorescence in tissue sections and tissue extracts, in the TGFα/c-myc and in the HepG2 xenotransplant HCC mouse model was analyzed. […] The control peptide had no effects on the doxorubicin level in any of the tissues. TGFα/c-myc mice with radiologically verified HCCs (A) or nude mice with subcutaneous HepG2 xenotransplants (B) were intravenously injected with 4 mmol/kg iRGD or control peptide (each in PBS), or treated with PBS alone, followed by a doxorubicin (20 mg/kg iv) injection 10 minutes later. The tissues were collected another 30 minutes later and stored, and the doxorubicin concentration was determined. The values are mean values±SD; n=5 to 6. Asterisks indicate a significant difference (**P<0.01; ***P<0.001).

HCCs in TGFα/c-myc mice [4] = assay: Doxorubicin tissue concentration after i.v. peptide in TGFα/c-myc mice with HCC; type: in vivo; settings: peptide 4 mmol/kg i.v.; for doxorubicin level in the HCCs: doxorubicin 20 mg/kg iv 10 minutes later, tissues 30 minutes later; for levels of doxorubicin in the organs: doxorubicin 20 mg/kg iv, FIG. 2A
Excerpt: as §1
Furthermore, the effect of iRGD on the tissue concentrations of intravenously applied doxorubicin, a tumor therapeutic agent that can be detected due to the inherent fluorescence in tissue sections and tissue extracts, in the TGFα/c-myc and in the HepG2 xenotransplant HCC mouse model was analyzed. […] The control peptide had no effects on the doxorubicin level in any of the tissues.
TGFα/c-myc mice with radiologically verified HCCs (A) or nude mice with subcutaneous HepG2 xenotransplants (B) were intravenously injected with 4 mmol/kg iRGD or control peptide (each in PBS), or treated with PBS alone, followed by a doxorubicin (20 mg/kg iv) injection 10 minutes later. The tissues were collected another 30 minutes later and stored, and the doxorubicin concentration was determined. The values are mean values±SD; n=5 to 6. Asterisks indicate a significant difference (**P<0.01; ***P<0.001).

HepG2 xenotransplants [5] = assay: Evans blue accumulation after i.v. peptide in nude mice with HepG2 xenotransplants; type: in vivo, NMRI Foxn1 nude mice; settings: subcutaneous HepG2 xenotransplants, peptide 4 mmol/kg i.v., p≤0.002
Procedure: (§3) HepG2- and Huh7 cells (ATCC and RIKEN BioResource Center) were cultivated in DMEM with 10% FBS and penicillin/streptomycin (Life Technologies). 5 million cells in 100 μL PBS were injected into the sides of NMRI Foxn1 nude mice (Harlan Laboratories B.V.). Four weeks later the mice were assigned to the test groups.
(§4) So as to examine whether the tumor-permeabilizing effect of iRGD also occurs in HCC nude mice tumor models, the effect of intravenously applied iRGD on the level of co-applied Evans blue in nude mice which had HepG2 or Huh7 xenotransplants was analyzed. iRGD effectuated an increase in the concentrations of co-applied Evans blue in HepG2-xenotransplanted and Huh-7-xenotransplanted tumors by a factor of 3.4 (p≤0.002) (in HepG2 tumors) and 2.6-fold in Huh7 tumors (p<0.001) compared to the corresponding tumors of nude mice injected with PBS and the control peptide (FIGS. 1B and C).
as §2, with “Asterisks indicate a significant difference (* P<0.05; * P<0.01; *** P<0.001). n.s., not significant.” left out

4T1 tumor = assay: Gd-DTPA-enhanced MRI with and without peptide in syngeneic 4T1 breast cancer mouse model; type: in vivo; settings: BALB/c mice, 4T1 cells in mammary gland no. 4; peptide 4 mmol/kg; p<0.05
Procedure: 4T1 cells (ATCC) were cultivated in RPMI 1640 medium with 10% FBS and penicillin/streptomycin (Life Technologies). BALB/c mice were injected with 2.5×10^4 4T1 cells into mammary gland no. 4 of the mouse, and the tumors were allowed to grow for two weeks.
Furthermore, it was examined to what extent iRGD also influences the MRI signal of the tumor in the Gd-DTPA-enhanced MRI in the syngeneic 4T1 breast cancer mouse model.
Effect of iRGD and the RGD control peptide on the increase in the signal intensity in the Gd-DTPA-enhanced MRI in the liver and in the 4T1 tumors in BALB/c mice. BALB/c mice were injected with 2.5×10^4 4T1 cells into mammary gland no. 4 of the mouse. Two weeks later, the mice were anesthetized, followed by a basal T1-weighted MRI, and a Gd-DTPA-enhanced MRI directly thereafter. 12 to 24 hours later, either iRGD or RGD control peptide (con. peptide) was injected (100 μL each via the tail vein, 4 mmol/kg) into the same animals, followed by a basal MRI and a Gd-DTPA-enhanced MRI. The data was quantitatively analyzed. Values are mean values±SD; n=6.

Huh7 xenotransplants [6] = assay: Evans blue accumulation after i.v. peptide in nude mice with Huh7 xenotransplants; type: in vivo, NMRI Foxn1 nude mice; settings: subcutaneous Huh7 xenotransplants, peptide 4 mmol/kg i.v., p<0.001
Procedure: as §3, §4
as §2, with “Asterisks indicate a significant difference (* P<0.05; * P<0.01; *** P<0.001). n.s., not significant.” left out

Huh7 xenotransplants [7] = assay: Gd-DTPA-enhanced MRI with and without peptide in nude mice with Huh7 xenotransplants; type: in vivo; settings: p=0.0081
Procedure: as §3
(§5) So as to determine the effect of iRGD on the Gd-DTPA-enhanced MRI in the HCC, TGFα/c mice with HCC according to a prior Gd-EOB-DTPA (Primovist)-enhanced MRI one week earlier, or nude mice with HepG2 or Huh7 tumors, were included in the experiments. The mice were anesthetized by way of intraperitoneal injection of ketamine (70 mg/kg body weight) and xylazine (10 mg/kg body weight), followed by a basal T1-weighted MRI. Directly thereafter, a Gd-DTPA-enhanced MRI was conducted (Haupenthal et al., 2012). Twelve to 24 hours later, either iRGD or the RGD control peptide was injected ([…] each via the tail vein), followed by a basal and a Gd-DTPA-enhanced MRI (Watcharin et al., 2015). For the quantitative analysis of the MRI data, the signal intensities in user defined “regions of interest” (ROI) were used (Korkusuz et al., 2013). ROIs were placed in the liver and in the tumor tissue. The changes in the signal intensities were ascertained by subtraction of the pre-contrast value from those after the administration of Gd-DTPA. […]

HepG2 tumors = assay: Gd-DTPA-enhanced MRI with and without peptide in nude mice with HepG2 xenotransplants; type: in vivo
Procedure: as §3, §5

Molecule | contrast of HCC tumors in the liver in Gd-DTPA-enhanced MRI (HCCs in TGFα/c-myc mice [1]) | concentration of Evans blue in normal tissue (liver, kidney, spleen and lung) (HCCs in TGFα/c-myc mice [2]) | Evans blue quantity in the tumors compared to HCCs of mice injected with PBS or control peptide (HCCs in TGFα/c-myc mice [2]) | signal intensities in normal organs in Gd-DTPA-enhanced MRI (HCCs in TGFα/c-myc mice [1]) | doxorubicin level in the HCCs (HepG2 xenotransplants) (HepG2 xenotransplants [3]) | doxorubicin level in the HCCs (HCCs in TGFα/c-myc mice [4]) | levels of doxorubicin in the organs (HCCs in TGFα/c-myc mice [4]) | increase in concentration of co-applied Evans blue in HepG2 tumors vs PBS and control peptide (HepG2 xenotransplants [5]) [fold] | MRI signal in the Gd-DTPA-enhanced MRI in the 4T1 tumor (4T1 tumor) | increase of signal intensities in the tumors in Gd-DTPA-enhanced MRI vs RGD control peptide or PBS (HCCs in TGFα/c-myc mice [1]; peptide 4 mmol/kg via tail vein, quantitative densitometric analysis, n=12) [fold] | increase in concentration of co-applied Evans blue in Huh7 tumors vs PBS and control peptide (Huh7 xenotransplants [6]) [fold] | rise in signal intensity of the tumors in Gd-DTPA-enhanced MRI (Huh7) (Huh7 xenotransplants [7]) [fold] | signal intensity of the tumors in Gd-DTPA-enhanced MRI (HepG2) (HepG2 tumors; p=0.0311) | rise in signal intensity of the tumors in Gd-DTPA-enhanced MRI, other HCC mouse models (HepG2) (HepG2 tumors; stated for 'the other HCC mouse models') [fold]
O=C([O-])CN(CCN(CC(=O)[O-])CC(=O)O)CCN(CC(=O)[O-])CC(=O)O.[Gd+3] [Gd-DTPA, reference compound] | highly negative contrasts | – | – | – | – | – | – | – | – | – | – | – | – | –
CRGDDGPKC [RGD control peptide, RGD control peptide without a CendR motif; acquired from GenScript, reference compound] | negatively contrasted | had no impact | had no effect | no effects | no effects | no effects | no effects | – | – | – | – | – | – | –
CRGDKGPDC [iRGD] | contrasting positively | had no impact | three-fold increase | no effects | increase in the doxorubicin level | increase in the doxorubicin level | no effects | 3.4 | significant increase in the MRI signal | 2 | 2.6 | 1.5 | rise in the signal intensity | ≤ 2
